The record followed here is ChEMBL document CHEMBL5465560, “Selectivity Literature for EUbOPEN Chemogenomic Library” (2024).

For orientation: IC50 means the point on the concentration scale where inhibition reaches its midpoint.

Bounds are passed on as bounds.

The subject of experiment [1] is Phosphatidylinositol 4,5-bisphosphate 3-kinase catalytic subunit alpha isoform (Homo sapiens), P42336 [M1043I]. The conditions noted are these: at 10 µM.
In experiment [2] the target is T1, Serine/threonine-protein kinase ULK3 (Homo sapiens) (UniProt Q6PHR2).
T1 sequence (whole entry): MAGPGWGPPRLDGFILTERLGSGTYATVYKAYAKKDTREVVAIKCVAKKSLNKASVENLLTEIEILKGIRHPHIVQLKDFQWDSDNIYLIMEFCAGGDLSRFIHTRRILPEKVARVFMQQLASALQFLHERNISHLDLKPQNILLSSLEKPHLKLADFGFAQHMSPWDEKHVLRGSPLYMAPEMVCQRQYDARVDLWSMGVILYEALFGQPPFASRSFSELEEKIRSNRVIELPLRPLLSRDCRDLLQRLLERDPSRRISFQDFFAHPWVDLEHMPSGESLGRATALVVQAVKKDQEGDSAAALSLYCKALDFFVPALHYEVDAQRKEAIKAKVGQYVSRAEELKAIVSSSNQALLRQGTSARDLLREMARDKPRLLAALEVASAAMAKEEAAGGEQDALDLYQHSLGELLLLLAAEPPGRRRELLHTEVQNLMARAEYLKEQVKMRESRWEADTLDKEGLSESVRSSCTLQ
In words: Selectivity interaction (Kinase panel (DSF assay)) EUB0001558a ULK3. A general note: In DSF a fluorescence change marks the thermal transition of the protein.

Experiment [3] deals with T2, Serine/threonine-protein kinase Nek1 (Homo sapiens) (UniProt Q96PY6).
T2 sequence (whole entry): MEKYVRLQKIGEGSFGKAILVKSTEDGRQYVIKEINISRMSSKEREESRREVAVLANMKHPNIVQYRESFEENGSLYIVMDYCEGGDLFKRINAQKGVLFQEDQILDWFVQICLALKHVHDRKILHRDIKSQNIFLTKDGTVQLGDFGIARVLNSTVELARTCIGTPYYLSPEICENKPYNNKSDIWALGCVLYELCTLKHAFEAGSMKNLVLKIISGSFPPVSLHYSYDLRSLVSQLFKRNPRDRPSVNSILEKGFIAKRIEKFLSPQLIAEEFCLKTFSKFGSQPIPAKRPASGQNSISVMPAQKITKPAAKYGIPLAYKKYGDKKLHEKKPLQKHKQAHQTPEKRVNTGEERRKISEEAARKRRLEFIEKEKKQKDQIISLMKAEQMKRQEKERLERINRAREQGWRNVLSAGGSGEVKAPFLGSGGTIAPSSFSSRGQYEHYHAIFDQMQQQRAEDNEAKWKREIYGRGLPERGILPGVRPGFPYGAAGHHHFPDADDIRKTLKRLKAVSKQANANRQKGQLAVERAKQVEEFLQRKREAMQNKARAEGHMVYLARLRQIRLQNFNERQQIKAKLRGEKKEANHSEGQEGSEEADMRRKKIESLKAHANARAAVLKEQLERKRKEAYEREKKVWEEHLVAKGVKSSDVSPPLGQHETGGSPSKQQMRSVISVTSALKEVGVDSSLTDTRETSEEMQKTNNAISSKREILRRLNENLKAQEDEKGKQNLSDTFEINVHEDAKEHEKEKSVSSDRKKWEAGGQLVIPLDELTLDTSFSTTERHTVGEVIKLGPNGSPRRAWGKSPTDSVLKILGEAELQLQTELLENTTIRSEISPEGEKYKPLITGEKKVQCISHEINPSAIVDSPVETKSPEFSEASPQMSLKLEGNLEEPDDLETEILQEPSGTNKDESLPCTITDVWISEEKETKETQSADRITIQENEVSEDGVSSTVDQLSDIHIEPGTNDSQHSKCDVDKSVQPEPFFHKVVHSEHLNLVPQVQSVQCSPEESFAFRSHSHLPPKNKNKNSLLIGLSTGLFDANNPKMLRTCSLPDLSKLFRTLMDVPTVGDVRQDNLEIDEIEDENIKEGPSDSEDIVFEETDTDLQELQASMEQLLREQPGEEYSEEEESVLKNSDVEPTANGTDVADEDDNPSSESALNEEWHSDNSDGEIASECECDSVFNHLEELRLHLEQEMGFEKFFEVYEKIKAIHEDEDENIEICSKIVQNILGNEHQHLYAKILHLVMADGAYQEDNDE
The experiment in a line: Selectivity interaction (Kinase panel (DSF assay)) EUB0001558a NEK1.

For experiment [4], the target named is Histone-lysine N-methyltransferase PRDM9 (Homo sapiens) (UniProt Q9NQV7). The settings on record: at 10 µM.
In experiment [5] the target is T3, Protein kinase C iota type (Homo sapiens) (UniProt P41743).
T3 sequence (whole entry): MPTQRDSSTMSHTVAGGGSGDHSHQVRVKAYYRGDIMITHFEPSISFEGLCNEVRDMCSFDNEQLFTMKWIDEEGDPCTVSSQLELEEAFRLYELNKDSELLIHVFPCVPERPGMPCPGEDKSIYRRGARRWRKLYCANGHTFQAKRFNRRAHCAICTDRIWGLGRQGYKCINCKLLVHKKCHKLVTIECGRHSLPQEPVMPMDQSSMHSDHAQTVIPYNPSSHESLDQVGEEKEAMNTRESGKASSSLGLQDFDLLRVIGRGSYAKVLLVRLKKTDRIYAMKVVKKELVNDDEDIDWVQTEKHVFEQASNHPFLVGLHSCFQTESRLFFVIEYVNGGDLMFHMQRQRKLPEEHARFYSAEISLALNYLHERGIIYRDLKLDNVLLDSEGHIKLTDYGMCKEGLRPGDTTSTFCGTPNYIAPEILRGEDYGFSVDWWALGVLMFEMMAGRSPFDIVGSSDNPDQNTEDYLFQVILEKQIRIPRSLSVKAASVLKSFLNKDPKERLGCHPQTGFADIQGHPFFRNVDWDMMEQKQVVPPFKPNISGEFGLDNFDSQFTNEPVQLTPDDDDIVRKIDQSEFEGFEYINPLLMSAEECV
The experiment in a line: Selectivity interaction (KinomeScan (DiscoverX)) EUB0000655a PRKCI. The settings on record: at 10 µM.

Experiment [6] deals with Serine/threonine-protein kinase PLK1 (Homo sapiens, UniProt P53350). In words: Selectivity interaction (KinomeScan (DiscoverX)) EUB0001619a PLK1. The settings on record: at 1 µM.
Chain of Serine/threonine-protein kinase PLK1 (P53350 whole entry): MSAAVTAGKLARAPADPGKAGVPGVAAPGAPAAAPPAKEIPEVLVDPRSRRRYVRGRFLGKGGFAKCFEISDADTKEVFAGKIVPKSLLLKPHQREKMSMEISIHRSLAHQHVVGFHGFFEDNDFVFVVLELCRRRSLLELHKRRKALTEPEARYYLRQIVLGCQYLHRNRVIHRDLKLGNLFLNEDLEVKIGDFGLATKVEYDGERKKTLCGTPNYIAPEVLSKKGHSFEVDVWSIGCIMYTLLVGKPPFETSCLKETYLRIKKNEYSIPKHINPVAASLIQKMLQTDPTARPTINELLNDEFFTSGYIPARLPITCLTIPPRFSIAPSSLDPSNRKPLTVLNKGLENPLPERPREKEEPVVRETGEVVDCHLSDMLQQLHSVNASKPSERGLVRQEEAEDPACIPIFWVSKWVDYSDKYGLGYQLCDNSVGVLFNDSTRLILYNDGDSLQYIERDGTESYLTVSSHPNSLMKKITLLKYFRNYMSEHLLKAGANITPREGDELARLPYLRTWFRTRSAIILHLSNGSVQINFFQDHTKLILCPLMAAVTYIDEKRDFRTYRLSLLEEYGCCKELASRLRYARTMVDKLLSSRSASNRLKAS
The target of experiment [7] is Proto-oncogene tyrosine-protein kinase Src (Homo sapiens, UniProt P12931). In words: Selectivity interaction (ActivX KiNativ screen (ex vivo kinase selectivity in human PBMCs)) EUB0001619a SRC. Type of experiment: cell-based. The conditions noted are these: PBMC, at 1 µM.
Chain of Proto-oncogene tyrosine-protein kinase Src (P12931 2-536 limits assumed): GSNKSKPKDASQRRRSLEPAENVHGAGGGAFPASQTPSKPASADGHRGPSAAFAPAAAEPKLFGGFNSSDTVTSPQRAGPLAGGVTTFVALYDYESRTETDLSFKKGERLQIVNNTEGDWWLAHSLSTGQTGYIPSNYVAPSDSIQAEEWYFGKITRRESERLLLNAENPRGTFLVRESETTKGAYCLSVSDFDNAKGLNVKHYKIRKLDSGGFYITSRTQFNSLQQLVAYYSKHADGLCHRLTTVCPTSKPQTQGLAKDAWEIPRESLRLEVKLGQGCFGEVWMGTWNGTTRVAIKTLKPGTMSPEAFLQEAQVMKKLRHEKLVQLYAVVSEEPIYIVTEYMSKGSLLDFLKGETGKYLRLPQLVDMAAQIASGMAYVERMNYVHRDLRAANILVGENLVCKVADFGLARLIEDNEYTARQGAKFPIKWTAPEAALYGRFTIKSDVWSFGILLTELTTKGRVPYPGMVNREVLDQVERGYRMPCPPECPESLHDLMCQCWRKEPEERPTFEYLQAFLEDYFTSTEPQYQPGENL
The target in experiment [8] is Non-receptor tyrosine-protein kinase TYK2 (Homo sapiens, UniProt P29597).
Experiment [9] addresses Glutamate receptor ionotropic, NMDA 2B (Homo sapiens) (UniProt Q13224). In words: Selectivity interaction (Panel of kinases, GPCRs, ion channels and transporters (enzymatic assay)) EUB0000223bCl GRIN2B.
For experiment [10], the target named is Myosin light chain kinase, smooth muscle (Homo sapiens, UniProt Q15746). In words: Selectivity interaction (KinomeScan (DiscoverX)) EUB0000045b MYLK.
Chain of Myosin light chain kinase, smooth muscle (Q15746 whole entry, canonical isoform): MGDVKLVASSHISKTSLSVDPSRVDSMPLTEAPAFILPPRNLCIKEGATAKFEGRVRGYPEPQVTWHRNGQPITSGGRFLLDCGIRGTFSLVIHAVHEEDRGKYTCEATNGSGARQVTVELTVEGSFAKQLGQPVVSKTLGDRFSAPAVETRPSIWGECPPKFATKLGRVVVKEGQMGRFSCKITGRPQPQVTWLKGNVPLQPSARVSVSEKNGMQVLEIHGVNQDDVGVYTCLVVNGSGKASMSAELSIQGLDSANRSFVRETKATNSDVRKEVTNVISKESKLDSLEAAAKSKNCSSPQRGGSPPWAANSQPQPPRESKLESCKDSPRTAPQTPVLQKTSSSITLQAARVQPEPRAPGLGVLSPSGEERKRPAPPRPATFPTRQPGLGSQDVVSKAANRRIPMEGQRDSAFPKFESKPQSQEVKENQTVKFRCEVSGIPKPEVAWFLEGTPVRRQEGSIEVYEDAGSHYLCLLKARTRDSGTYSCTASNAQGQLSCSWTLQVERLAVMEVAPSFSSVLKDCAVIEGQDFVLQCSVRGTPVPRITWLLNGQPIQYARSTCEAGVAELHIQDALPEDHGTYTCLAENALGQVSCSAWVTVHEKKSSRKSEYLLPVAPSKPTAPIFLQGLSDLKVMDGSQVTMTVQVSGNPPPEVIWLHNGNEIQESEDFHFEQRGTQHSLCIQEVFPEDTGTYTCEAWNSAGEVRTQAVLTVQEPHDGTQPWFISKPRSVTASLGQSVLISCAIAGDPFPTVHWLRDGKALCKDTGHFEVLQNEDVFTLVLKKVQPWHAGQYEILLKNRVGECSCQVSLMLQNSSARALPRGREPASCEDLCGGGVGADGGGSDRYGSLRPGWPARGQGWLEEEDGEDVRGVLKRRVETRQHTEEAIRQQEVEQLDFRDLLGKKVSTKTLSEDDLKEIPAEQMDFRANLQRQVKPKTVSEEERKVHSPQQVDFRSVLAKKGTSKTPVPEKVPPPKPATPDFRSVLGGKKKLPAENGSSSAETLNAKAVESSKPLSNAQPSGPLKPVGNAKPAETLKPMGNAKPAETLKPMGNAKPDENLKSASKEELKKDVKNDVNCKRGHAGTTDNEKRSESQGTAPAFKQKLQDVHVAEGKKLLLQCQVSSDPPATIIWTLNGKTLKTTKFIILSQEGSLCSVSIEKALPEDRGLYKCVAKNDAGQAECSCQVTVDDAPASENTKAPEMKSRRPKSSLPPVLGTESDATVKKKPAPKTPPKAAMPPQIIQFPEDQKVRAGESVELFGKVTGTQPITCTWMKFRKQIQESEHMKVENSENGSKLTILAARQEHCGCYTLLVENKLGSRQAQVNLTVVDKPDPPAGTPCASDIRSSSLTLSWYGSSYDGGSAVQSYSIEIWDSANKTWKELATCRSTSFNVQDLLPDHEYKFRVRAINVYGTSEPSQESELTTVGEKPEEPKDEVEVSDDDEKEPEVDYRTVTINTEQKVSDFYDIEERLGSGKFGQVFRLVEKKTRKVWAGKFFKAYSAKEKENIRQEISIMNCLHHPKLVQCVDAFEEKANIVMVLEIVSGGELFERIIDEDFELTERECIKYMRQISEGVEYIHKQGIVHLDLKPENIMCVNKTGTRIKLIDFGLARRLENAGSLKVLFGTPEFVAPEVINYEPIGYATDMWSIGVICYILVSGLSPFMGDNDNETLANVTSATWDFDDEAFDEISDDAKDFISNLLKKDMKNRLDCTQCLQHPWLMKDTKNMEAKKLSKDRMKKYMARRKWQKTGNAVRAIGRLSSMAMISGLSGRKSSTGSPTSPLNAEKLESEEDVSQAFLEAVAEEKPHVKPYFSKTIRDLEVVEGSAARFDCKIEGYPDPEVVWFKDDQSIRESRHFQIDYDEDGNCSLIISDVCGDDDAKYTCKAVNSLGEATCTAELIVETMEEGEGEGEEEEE
The target in experiment [11] is Casein kinase I isoform delta (Homo sapiens, UniProt P48730). The experiment in a line: Selectivity interaction (KinomeScan (DiscoverX)) EUB0000045b CSNK1D.
Chain of Casein kinase I isoform delta (P48730 whole entry, looked up, canonical isoform): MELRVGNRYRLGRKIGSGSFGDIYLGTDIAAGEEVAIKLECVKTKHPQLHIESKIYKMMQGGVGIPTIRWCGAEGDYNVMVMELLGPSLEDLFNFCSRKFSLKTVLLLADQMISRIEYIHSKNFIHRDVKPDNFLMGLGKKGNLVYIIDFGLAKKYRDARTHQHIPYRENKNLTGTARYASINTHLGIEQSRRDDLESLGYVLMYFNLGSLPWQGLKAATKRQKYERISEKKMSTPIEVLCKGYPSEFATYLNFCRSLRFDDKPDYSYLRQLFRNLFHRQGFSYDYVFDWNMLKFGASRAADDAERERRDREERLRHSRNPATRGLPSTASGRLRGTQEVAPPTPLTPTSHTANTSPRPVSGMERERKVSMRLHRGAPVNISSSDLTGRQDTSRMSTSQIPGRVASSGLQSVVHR

Chain of Glutamate receptor ionotropic, NMDA 2B (Homo sapiens) (Q13224 27-1484 limits assumed): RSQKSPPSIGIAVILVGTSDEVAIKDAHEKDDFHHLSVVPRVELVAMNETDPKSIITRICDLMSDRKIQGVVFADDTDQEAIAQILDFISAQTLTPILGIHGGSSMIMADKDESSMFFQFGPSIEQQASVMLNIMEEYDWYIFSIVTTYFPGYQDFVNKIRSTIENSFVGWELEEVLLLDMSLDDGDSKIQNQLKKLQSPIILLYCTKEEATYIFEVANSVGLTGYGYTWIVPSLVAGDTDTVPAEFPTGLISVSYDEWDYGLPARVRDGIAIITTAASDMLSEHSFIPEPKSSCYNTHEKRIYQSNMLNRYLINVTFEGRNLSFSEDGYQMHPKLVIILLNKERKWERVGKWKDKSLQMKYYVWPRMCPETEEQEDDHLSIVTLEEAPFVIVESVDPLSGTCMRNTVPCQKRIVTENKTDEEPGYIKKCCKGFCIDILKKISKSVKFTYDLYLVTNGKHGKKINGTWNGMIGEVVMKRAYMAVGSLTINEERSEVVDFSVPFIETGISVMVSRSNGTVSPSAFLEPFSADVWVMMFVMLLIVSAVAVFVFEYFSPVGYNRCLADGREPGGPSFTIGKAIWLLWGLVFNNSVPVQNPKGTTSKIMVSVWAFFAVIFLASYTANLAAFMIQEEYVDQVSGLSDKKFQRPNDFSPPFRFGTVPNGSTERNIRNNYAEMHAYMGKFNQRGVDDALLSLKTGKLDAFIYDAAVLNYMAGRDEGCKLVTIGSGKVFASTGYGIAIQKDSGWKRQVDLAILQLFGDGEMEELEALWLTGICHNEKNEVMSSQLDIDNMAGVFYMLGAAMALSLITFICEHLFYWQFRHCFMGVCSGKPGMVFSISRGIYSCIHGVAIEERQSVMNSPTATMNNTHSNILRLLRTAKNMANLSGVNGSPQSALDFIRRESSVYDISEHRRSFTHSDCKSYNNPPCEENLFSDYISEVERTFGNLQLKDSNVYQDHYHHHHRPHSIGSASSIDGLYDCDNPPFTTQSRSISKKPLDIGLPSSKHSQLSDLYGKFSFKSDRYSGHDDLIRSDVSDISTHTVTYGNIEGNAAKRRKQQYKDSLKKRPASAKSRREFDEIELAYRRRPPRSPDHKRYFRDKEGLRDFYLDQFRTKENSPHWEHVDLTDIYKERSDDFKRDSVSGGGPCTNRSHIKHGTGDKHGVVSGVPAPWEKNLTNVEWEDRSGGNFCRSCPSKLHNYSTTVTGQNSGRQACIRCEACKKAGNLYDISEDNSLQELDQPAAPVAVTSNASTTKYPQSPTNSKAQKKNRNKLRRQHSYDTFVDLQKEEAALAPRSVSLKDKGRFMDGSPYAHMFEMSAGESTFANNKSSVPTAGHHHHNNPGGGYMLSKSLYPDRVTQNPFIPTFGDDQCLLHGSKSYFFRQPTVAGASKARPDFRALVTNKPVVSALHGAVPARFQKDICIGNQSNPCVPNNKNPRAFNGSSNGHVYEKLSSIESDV

On to `CNC(=O)Nc1ccc(-c2nc(N3CC4CCC(C3)O4)c3cnn(C4CCC5(CC4)OCCO5)c3n2)cc1`, for which the % of control in [1] came out at 4.4%.
On to `CC(C)(O)[C@H](F)CN1Cc2cc(NC(=O)c3cnn4cccnc34)c(N3CCOCC3)cc2C1=O`, for which the results for the dTM in experiment [2] and in [3] were 6.3 K and -1.2 K, respectively.
For `CNCCN1CCC(c2cc(CN(C)C(=O)c3cccc(Oc4ccccc4)c3)ccn2)CC1`, the % activity in experiment [4] is above 90%.
On to `CN(C)CCOc1ccc(-c2nc(-c3ccncc3)c(-c3ccc4c(c3)CC/C4=N\O)[nH]2)cc1`, for which, in experiment [5], the % of control was determined as 80%.
Regarding `N#Cc1cccc(-c2c[nH]c3ncnc(N4CCOCC4)c23)c1`, the % of control in experiment [6] was found to be 100%. The % of inhibition in experiment [7] was -9%.
For the molecule `CCc1cccc(CC)c1NC(=O)c1nn(C)c2c1CCc1cnc(Nc3ccc(C(=O)NC4CCN(C)CC4)cc3OC(F)(F)F)nc1-2`, in experiment [8], the IC50 was above 10 µM.
Molecule `COc1cc(C(=O)N2CC[C@@H](O)[C@@H](N)C2)cc2nc(-c3cc4ccccc4n3CC3CC3)n(C)c12` showed a pXC50 in experiment [9] of 4.8 M.
`C=CC(=O)Nc1cc(-n2c(=O)ccc3cnc4ccc(-c5ccc(NS(C)(=O)=O)cc5)cc4c32)ccc1C`: the % of control in [10] (at 1 µM) turned out to be 90%; in experiment [10] (at 10 µM), 100%; in experiment [11] (at 1 µM), 84%; in [11] (at 10 µM) it was 90%.
